Laboratory results taken from US20130066055A1, “NEW BINDER-DRUG CONJUGATES (ADCS) AND USE THEREOF” (Bayer Intellectual Property GmbH, priority 2011, published 2013).
Where a name gives a salt, the structure may show the parent alone. Square brackets hold non-standard residues; d marks the D form. Peptide text beside a SMILES is read from it. * marks the point of attachment. X2 = CC(C)[C@@H](C(=O)*)N(C)CCCCCCN1C(=O)CC(SC[C@H](N)C(=O)O)C1=O; X1 = CC(C)[C@@H](C(=O)*)N(C)CCCCCC(=O)NCCCC[C@H](N)C(=O)O; Dolaproine = CO[C@@H]([C@@H]1CCCN1)[C@@H](C)C(=O)O; Dil = CC[C@H](C)[C@H](NC)[C@@H](CC(=O)O)OC; X5 = C[C@@H](N*)[C@@H](O)c1ccccc1; Oxazinan2yl(1,2) = C1CCN(*)OC1; NMeV = CN[C@H](C(=O)O)C(C)C

Legend:
Caco-2 cells = assay: Caco-2 flux assay for cell permeability; format: in vitro ADME; settings: basal to apical, 2 hours
Protocol: (§1) The cell permeability of a substance can be investigated by means of in vitro testing in a flux assay using Caco-2 cells [M. D. Troutman and D. R. Thakker, Pharm. Res. 20 (8), 1210-1224 (2003)]. For this purpose, the cells were cultured for 15-16 days on 24-well filter plates. For the determination of permeation, the respective working example was applied in a HEPES buffer to the cells either apically (A) or basally (B) and incubated for 2 hours. After 0 hours and after 2 hours, samples were taken from the cis and trans compartments. The samples were separated by HPLC (Agilent 1200, Böblingen, Germany) using reverse phase columns. The HPLC system was coupled via a Turbo Ion Spray Interface to a Triple Quadropol mass spectrometer API 4000 (Applied Biosystems Applera, Darmstadt, Germany). The permeability was evaluated on the basis of a Papp value, which was calculated using the formula published by Schwab et al. [D. Schwab et al., J. Med. Chem. 46, 1716-1725 (2003)].

tubulin = assay: Fluorescence-based microtubule (tubulin) polymerization assay; format: biochemical
Protocol: Tubulin polymerization was investigated using the “Fluorescence-based Microtubule Polymerisation Assay Kit” from Cytoskeleton (Denver, Colo., USA; order number: BK011). With this assay, GTP is added to unpolymerized tubulin, allowing polymerization to take place spontaneously. The assay is based on the binding of the fluorophore 4′,6-di-amidino-2-phenylindole (DAPI) to tubulin. Free and bound DAPI can be differentiated on the basis of different emission spectra.
[…] In addition to the buffer control, paclitaxel, with a polymerization-increasing effect, and vinblastin, with a polymerization inhibiting effect, were run additionally as assay controls. Measurement was carried out using 96-well plates with a half base area. The kinetics of the tubulin polymerization were monitored in a Fluorimeter at 37° C. for 1 hour. The excitation wavelength was 355 nm, and emission was monitored at 460 nm. For the region of linear increase within the first 10 minutes, a calculation was made of the change in fluorescence per minute (ΔF/min), which represents the polymerization rate of the microtubuli. The potency of the test substances was quantified on the basis of their respective reduction of the polymerization rate.

[1] = target: T1, P-glycoprotein (P-gp, ABCB1) (Homo sapiens, UniProt P08183); assay: Flux assay in P-gp overexpressing L-MDR1 cells; format: in vitro ADME; settings: LLC-PK1, basal to apical
T1 construct: expressed in transfected cells; host or cells: LLC-PK1 (pig kidney) cells transfected with human MDR1 (L-MDR1 cells)
Protocol: The substrate properties of a substance for P-gp (ABCB1) were determined by means of a flux assay using LLC-PK1 cells which overexpress P-gp (L-MDR1 cells) [A. H. Schinkel et al., J. Clin. Invest. 96, 1698-1705 (1995)]. For this purpose, the LLC-PK1 cells or L-MDR1 cells were cultured on 96-well filter plates for 3-4 days. For determination of the permeation, the respective test substance, alone or in the presence of an inhibitor (such as Ivermectin or Verapamil, for example), was applied in a HEPES buffer to the cells either apically (A) or basally (B) and incubated for 2 hours. After 0 hours and after 2 hours, samples were taken from the cis and trans compartments. The samples were separated by HPLC using reverse phase columns. The HPLC system was coupled via a Turbo Ion Spray Interface to a Triple Quadropol mass spectrometer API 3000 (Applied Biosystems Applera, Darmstadt, Germany). The permeability was evaluated on the basis of a Papp value which was calculated using the formula published by Schwab et al. [D. Schwab et al., J. Med. Chem. 46, 1716-1725 (2003)].

[2] = Caco-2 flux assay for cell permeability; format: in vitro ADME; settings: human, Caco-2 cells, basal to apical
Protocol: as §1

T1 sequence (P08183 whole entry): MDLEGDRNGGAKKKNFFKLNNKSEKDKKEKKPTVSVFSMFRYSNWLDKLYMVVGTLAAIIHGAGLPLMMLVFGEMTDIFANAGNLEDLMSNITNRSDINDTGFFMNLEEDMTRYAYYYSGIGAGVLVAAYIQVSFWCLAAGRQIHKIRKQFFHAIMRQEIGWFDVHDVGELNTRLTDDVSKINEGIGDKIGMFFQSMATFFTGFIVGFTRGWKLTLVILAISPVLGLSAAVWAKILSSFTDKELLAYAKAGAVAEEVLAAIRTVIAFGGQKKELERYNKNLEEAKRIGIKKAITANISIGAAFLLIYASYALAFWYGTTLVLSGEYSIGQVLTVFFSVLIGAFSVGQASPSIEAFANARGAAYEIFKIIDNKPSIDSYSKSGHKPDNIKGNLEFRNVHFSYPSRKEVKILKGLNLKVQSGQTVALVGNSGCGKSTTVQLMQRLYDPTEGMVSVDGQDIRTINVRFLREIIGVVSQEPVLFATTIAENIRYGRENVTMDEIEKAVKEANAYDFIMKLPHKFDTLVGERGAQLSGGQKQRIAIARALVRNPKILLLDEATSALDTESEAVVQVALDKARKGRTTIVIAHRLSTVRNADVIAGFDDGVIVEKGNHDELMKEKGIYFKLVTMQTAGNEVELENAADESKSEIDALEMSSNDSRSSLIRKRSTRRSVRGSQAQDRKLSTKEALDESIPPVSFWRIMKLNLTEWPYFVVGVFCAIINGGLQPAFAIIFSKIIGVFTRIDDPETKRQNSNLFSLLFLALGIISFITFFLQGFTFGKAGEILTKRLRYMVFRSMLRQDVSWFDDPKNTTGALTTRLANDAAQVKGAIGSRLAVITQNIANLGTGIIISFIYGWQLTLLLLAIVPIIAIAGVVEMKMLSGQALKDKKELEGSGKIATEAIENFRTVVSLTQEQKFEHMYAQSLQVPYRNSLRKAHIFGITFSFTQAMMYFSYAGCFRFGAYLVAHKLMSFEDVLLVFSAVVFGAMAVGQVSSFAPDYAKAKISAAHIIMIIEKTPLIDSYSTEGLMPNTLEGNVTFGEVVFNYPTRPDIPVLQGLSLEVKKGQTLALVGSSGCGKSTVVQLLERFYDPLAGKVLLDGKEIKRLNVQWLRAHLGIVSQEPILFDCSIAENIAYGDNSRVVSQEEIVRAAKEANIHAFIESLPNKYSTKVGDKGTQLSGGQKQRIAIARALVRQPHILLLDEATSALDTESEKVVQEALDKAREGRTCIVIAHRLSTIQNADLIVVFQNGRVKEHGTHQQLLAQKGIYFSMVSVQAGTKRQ

Compound | Papp (B-A) (Caco-2 cells) | inhibition of tubulin polymerization (tubulin) | Tubulin polymerization in the presence of toxophore in [%]. Tubulin polymerization rate at 1 μM MMAF set at 100% (tubulin; toxophore 1 μM) | Tubulin polymerization in the presence of toxophore in [%]. Tubulin polymerization rate at 1 μM MMAF set at 100% (tubulin; toxophore 10 μM) | Papp B→A at 2 h [1] | Papp B→A at 2 h [2]
CC[C@H](C)[C@@H]([C@@H](CC(=O)N1CCC[C@H]1[C@H](OC)[C@@H](C)C(=O)N[C@H](C)[C@@H](O)c1ccccc1)OC)N(C)C(=O)[C@@H](NC(=O)[C@@H](NC)C(C)C)C(C)C [MMAE, monomethylauristatin E, reference compound] (H-[NMeV]V[Dil][Dolaproine]-X5) | 7.3 ×10⁻⁶ cm/s | – | – | – | – | –
CC[C@H](C)[C@@H]([C@@H](CC(=O)N1CCC[C@H]1[C@H](OC)[C@@H](C)C(=O)N[C@@H](Cc1ccccc1)C(=O)O)OC)N(C)C(=O)[C@@H](NC(=O)[C@@H](NC)C(C)C)C(C)C [MMAF, Monomethylauristatin F, reference compound] (H-[NMeV]V[Dil][Dolaproine]F-OH) | 7.3 ×10⁻⁶ cm/s | inhibit tubulin polymerization as a function of their concentration | 100% | 34% | – | –
CC[C@H](C)[C@@H]([C@@H](CC(=O)N1CCC[C@H]1[C@H](OC)[C@@H](C)C(=O)N[C@@H](Cc1c[nH]c2ccccc12)C(N)=O)OC)N(C)C(=O)[C@@H](NC(=O)[C@H](C(C)C)N(C)CCCC(=O)NNC(=O)CCCCCN1C(=O)CC(SC[C@H](N)C(=O)O)C1=O)C(C)C (stereo partly drawn) [Example 71, N-(4-{2-[6-(3-{[(2R)-2-Amino-2-carboxyethyl]sulphanyl}-2,5-dioxopyrrolidin-1-yl)hexanoyl]hydrazino}-4-oxobutyl)-N-methyl-L-valyl-N-[(3R,4S,5S)-1-{(2S)-2-[(1R,2R)-3-{[(2S)-1-amino-3-(1H-indol-3-yl)-1-oxopropan-2-yl]amino}-1-methoxy-2-methyl-3-oxopropyl]pyrrolidin-1-yl}-3-methoxy-5-methyl-1-oxoheptan-4-yl]-N-methyl-L-valinamide] | – | – | 88% | 25% | 0.3 ×10⁻⁶ cm/s | 0.2 ×10⁻⁶ cm/s
CC[C@H](C)[C@@H]([C@@H](CC(=O)N1CCC[C@H]1[C@H](OC)[C@@H](C)C(=O)N[C@@H](Cc1c[nH]c2ccccc12)C(=O)O)OC)N(C)C(=O)[C@@H](NC(=O)[C@H](C(C)C)N(C)CCCCCC(=O)NCCCC[C@H](N)C(=O)O)C(C)C [Example 116, N-(6-{[(5S)-5-Amino-5-carboxypentyl]amino}-6-oxohexyl)-N-methyl-L-valyl-N-[(3R,4S,5S)-1-{(2S)-2-[(1R,2R)-3-{[(1S)-1-carboxy-2-(1H-indol-3-yl)ethyl]amino}-1-methoxy-2-methyl-3-oxopropyl]pyrrolidin-1-yl}-3-methoxy-5-methyl-1-oxoheptan-4-yl]-N-methyl-L-valinamide] (X1-V[Dil][Dolaproine]W-OH) | – | – | 80% | 14% | 0.4 ×10⁻⁶ cm/s | 0.1 ×10⁻⁶ cm/s
CC[C@H](C)[C@@H]([C@@H](CC(=O)N1CCC[C@H]1[C@H](OC)[C@@H](C)C(=O)N[C@@H](Cc1c[nH]c2ccccc12)C(=O)NCc1ccccc1)OC)N(C)C(=O)[C@@H](NC(=O)[C@H](C(C)C)N(C)CCCC(=O)NNC(=O)CCCCCN1C(=O)CC(SC[C@H](N)C(=O)O)C1=O)C(C)C (stereo partly drawn) [Example 77, N-(4-{2-[6-(3-{[(2R)-2-Amino-2-carboxyethyl]sulphanyl}-2,5-dioxopyrrolidin-1-yl)hexanoyl]hydrazino}-4-oxobutyl)-N-methyl-L-valyl-N-[(3R,4S,5S)-1-{(2S)-2-[(1R,2R)-3-{[(2S)-1-(benzylamino)-3-(1H-indol-3-yl)-1-oxopropan-2-yl]amino}-1-methoxy-2-methyl-3-oxopropyl]pyrrolidin-1-yl}-3-methoxy-5-methyl-1-oxoheptan-4-yl]-N-methyl-L-valinamide] | – | – | 111% | 45% | 0.2 ×10⁻⁶ cm/s | 0.7 ×10⁻⁶ cm/s
CC[C@H](C)[C@@H]([C@@H](CC(=O)N1CCC[C@H]1[C@H](OC)[C@@H](C)C(=O)N[C@@H](Cc1c[nH]c2ccccc12)C(=O)O)OC)N(C)C(=O)[C@@H](NC(=O)[C@H](C(C)C)N(C)CCCCCCN1C(=O)CC(SC[C@H](N)C(=O)O)C1=O)C(C)C (stereo partly drawn) [Example 75, N-[6-(3-{[(2R)-2-Amino-2-carboxyethyl]sulphanyl}-2,5-dioxopyrrolidin-1-yl)hexyl]-N-methyl-L-valyl-N-[(3R,4S,5S)-1-{(2S)-2-[(1R,2R)-3-{[(1S)-1-carboxy-2-(1H-indol-3-yl)ethyl]amino}-1-methoxy-2-methyl-3-oxopropyl]pyrrolidin-1-yl}-3-methoxy-5-methyl-1-oxoheptan-4-yl]-N-methyl-L-valinamide] (X2-V[Dil][Dolaproine]W-OH) | – | – | 107% | 25% | 0.4 ×10⁻⁶ cm/s | 0.1 ×10⁻⁶ cm/s
CC[C@H](C)[C@@H]([C@@H](CC(=O)N1CCC[C@H]1[C@H](OC)[C@@H](C)C(=O)N[C@@H](Cc1c[nH]c2ccccc12)C(=O)N1CCCCO1)OC)N(C)C(=O)[C@@H](NC(=O)[C@H](C(C)C)N(C)CCCCCC(=O)NCCCC[C@H](N)C(=O)O)C(C)C [Example 115, N-(6-{[(5S)-5-Amino-5-carboxypentyl]amino}-6-oxohexyl)-N-methyl-L-valyl-N-[(3R,4S,5S)-1-{(2S)-2-[(1R,2R)-3-{[(2S)-3-(1H-indol-3-yl)-1-(1,2-oxazinan-2-yl)-1-oxopropan-2-yl]amino}-1-methoxy-2-methyl-3-oxopropyl]pyrrolidin-1-yl}-3-methoxy-5-methyl-1-oxoheptan-4-yl]-N-methyl-L-valinamide trifluoroacetate] (X1-V[Dil][Dolaproine]W-{Oxazinan2yl(1,2)}) | – | – | 45% | 1% | 0.6 ×10⁻⁶ cm/s | 0.2 ×10⁻⁶ cm/s
